Reference: PubChem BioAssay (NCI)
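Protocol summary: plate cells (96-well), add compound at 5 concentrations, incubate 48 h, interpolate endpoints linearly. Here, GI50 denotes the concentration required for 50% inhibition of growth. TGI denotes the concentration required for complete inhibition of growth.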

Key:
Assay in all cases: NCI tumour cell line growth inhibition, 48 h
KM12 colon = system: KM12 colon
SK-MEL-2 melanoma = system: SK-MEL-2 melanoma
HCT-15 colon = system: HCT-15 colon
UACC-62 melanoma = system: UACC-62 melanoma
EKVX NSCLC = system: EKVX NSCLC
LOX IMVI melanoma = system: LOX IMVI melanoma
SK-OV-3 ovarian = system: SK-OV-3 ovarian
MOLT-4 leukemia = system: MOLT-4 leukemia
HCC-2998 colon = system: HCC-2998 colon
A498 renal = system: A498 renal

Row | SMILES | TGI (KM12 colon) [µM] | TGI (SK-MEL-2 melanoma) [µM] | TGI (HCT-15 colon) [µM] | TGI (UACC-62 melanoma) [µM] | TGI (EKVX NSCLC) [µM] | TGI (LOX IMVI melanoma) [µM] | TGI (SK-OV-3 ovarian) [µM] | TGI (MOLT-4 leukemia) [µM] | TGI (HCC-2998 colon) [µM] | TGI (A498 renal) [µM] | GI50 (HCT-15 colon) [µM] | GI50 (UACC-62 melanoma) [µM] | GI50 (LOX IMVI melanoma) [µM] | GI50 (MOLT-4 leukemia) [µM]
1 | COC(=O)c1cc(=O)nc2sc3cccc(C)c3n12 | > 100 | 82.5 | > 100 | > 100 | > 100 | 33.8 | > 100 | > 100 |  |  |  |  |  | 
2 | CCOC(=O)C1(C/C=C/CBr)Cc2ccccc2C1=O (stereo unspecified) | 10.8 | 6.13 | 5.73 | 5.44 | 28.7 | 3.23 | 21.5 | 8.31 | 21.3 | 32.6 |  |  |  | 
3 | Cc1cc(Cc2cc(C)c(N)cc2N)c(N)cc1N | > 100 | > 100 | > 100 | > 100 | > 100 | > 100 | > 100 | > 100 |  | > 100 |  |  |  | 
4 | CN1CCc2cc(N)cc3c2C1Cc1ccc(O)c(O)c1-3 (stereo unspecified) | > 100 | > 100 | > 100 | 70.4 | > 100 | 35 | > 100 | 39.9 | 33.1 | > 100 |  |  |  | 
5 | CCOC(=O)/C=C/CC(C)(C)CCOC(C)=O | > 10 | > 10 | > 10 | > 10 |  | > 10 | > 10 | > 10 | > 10 |  |  |  |  | 
6 | Cc1n[nH]c(=O)n1/N=C/c1ccc(Cl)cc1 | > 100 |  | > 100 | > 100 | 72.5 |  | > 100 | > 100 | > 100 | > 100 |  |  |  | 
7 | COC(=O)c1ccccc1CC1Cc2ccc3c(c2C1=O)CCCC3 (stereo unspecified) | > 100 | > 76.3 | > 100 | > 100 | > 100 | > 87 | > 100 | 46.5 | > 100 | > 100 |  |  |  | 
8 | COc1cc2c(c(OC)c1OC)C(=O)[C@@H]1[C@H]2N1C(N)=O | > 100 |  | > 100 | 68.2 | > 100 | > 100 |  | > 100 | > 100 |  |  |  |  | 
9 | CC(C)(C)N1CSC(=S)N(Cc2ccco2)C1 | 14.3 | 14.6 | 10.6 | 20 | 30.2 | 14.6 | 18.9 | 5.72 | 13.3 | 26.7 |  |  |  | 
10 | O=C(CCN1CCCCC1)C(=Cc1ccccc1)C(=O)CCN1CCCCC1 | > 100 | > 100 |  | > 100 | > 100 | > 100 | > 100 | 42.3 | > 100 | > 100 | 3.07 | 8.82 | 3.39 | 4.32
11 | COc1ccc2c(c1)/C(=C/CCN(C)C)c1ccccc1S2 | > 100 |  | > 100 |  |  | > 100 | > 100 | > 100 | > 100 | > 100 |  |  |  | 
12 | O=c1c2cc([N+](=O)[O-])cnc2sn1-c1ccc([N+](=O)[O-])cc1 | 62.4 | 88.1 | 87.5 | > 100 | > 100 | 49.4 | > 100 | 75.6 | > 100 |  |  |  |  | 
13 | O=c1[nH]c(Nc2cccc(CC(F)(F)F)c2)nc2nc[nH]c12 | > 100 | > 100 | > 100 | > 100 | > 100 | > 100 | > 100 |  | > 100 | > 100 |  |  |  | 
14 | C1CN(c2nc3c(nnc4nc(N5CCOCC5)sc43)s2)CCO1 | > 100 | > 100 | > 100 | > 100 | > 100 | > 100 |  | > 100 |  | > 100 |  |  |  | 
15 | N#CC1(C#N)N[C@@H](c2ccsc2)[C@H]2C(=O)N(c3ccccc3)C(=O)[C@H]21 | > 100 | > 100 |  | > 100 | > 100 | > 100 | > 100 | > 100 |  | > 100 |  |  |  | 
16 | COc1cc(Br)cc2cc(-c3cn4ccsc4n3)c(=O)oc12 | 56.5 | > 100 | > 100 | 75.9 | > 100 | > 100 | > 100 | > 100 | 24 |  |  |  |  | 
17 | Cc1cn2c(/C=N/N=C(N)N)c(-c3cccc([N+](=O)[O-])c3)nc2s1 | 2.38 |  | 19.6 | 3.07 | 5.39 | 2.22 |  | 4.04 | 2.83 |  |  |  |  | 
18 | Nn1c(-c2ccccc2)nn(C(=O)c2ccccc2)c1=O | > 100 |  | > 100 |  | > 100 | > 100 |  | > 100 | > 100 | > 100 |  |  |  | 
19 | C=C(C)C(=O)OC1C/C(CO)=C\C(O)C/C(C)=C/C2OC(=O)C(=C)C21 (stereo unspecified) | 38.8 | 36.6 | 29.6 | 39.1 | 69.1 | 35 | > 100 | 56.2 |  |  |  |  |  | 
20 | Clc1ccccc1C(SCc1ccccc1)SCc1ccccc1 | > 100 | > 100 | > 100 | > 100 | > 100 |  |  | > 100 | > 100 |  |  |  |  | 
21 | CCC(C(=O)O)c1ccc(OC)cc1 (stereo unspecified) | > 100 | > 100 |  | > 100 | > 100 | > 100 | > 100 | > 100 | > 100 | > 100 |  |  |  | 
22 | COc1ccc(C2CC(c3c(O)ccc4ccccc34)=NN2C(C)=O)cc1OC (stereo unspecified) | > 100 | 52.1 | > 100 | 29.7 |  |  | > 100 | 53.6 | 54.3 | 63.4 |  |  |  | 
23 | COc1ccc(-c2cc(O)c3nc4ccccc4n3c2)cc1 | > 100 |  | > 100 | > 100 | > 100 | > 100 |  | > 100 |  | > 100 |  |  |  | 
